In patent US6069165A, “Pharmaceutical compositions containing amisulpride and their therapeutic applications” (Synthelabo, priority 1996, dated 2000) one finds bioavailability data, which are given here for one molecule.

The structures appear in SMILES notation.

The data set can be described thus: Bioavailability of amisulpride administered by the oral route. The following applies: in vivo, conventional amisulpride, of the order of.

The molecule `CCN1CCCC1CNC(=O)c1cc(S(=O)(=O)CC)c(N)cc1OC` (stereo not shown) [amisulpride, 4-amino-N-[(1-ethylpyrrolidin-2-yl)methyl]-5-(ethylsulphonyl)-2-methoxybenzamide] showed a bioavailability of 35 to 45%.
